Key:
[1] = system: nitrification; assay: inhibition of nitrification in soil incubation (ammonium and nitrate content after 14 days); details: 20° C., 10 mg ammoniumsulfate-N; for NI @ 0.3%: compound at 0.3% of nitrogen N; for NI @ 1%: compound at 1% of nitrogen N; for NI @ 0.1%: compound at 0.1% of nitrogen N; for NI @ 3%: compound at 3% of nitrogen N
Experimental: The compounds of the invention have been tested as follows in terms of the inhibition of nitrification:
100 g soil is filled into 500 ml plastic bottles (e.g. soil sampled from the field) and is moistened to 50% water holding capacity. The soil is incubated at 20° C. for two weeks to activate the microbial biomass. 1 ml test solution, containing the compound in the appropriate concentration (usually 0.3 or 1% of nitrogen N), or DMSO and 10 mg nitrogen in the form of ammoniumsulfate-N is added to the soil and everything mixed well. Bottles are capped but loosely to allow air exchange. The bottles are then incubated at 20° C. for 0 and 14 days.
For analysis 300 ml of a 1% K2SO4-solution is added to the bottle containing the soil and shaken for 2 hours in a horizontal shaker at 150 rpm. Then the whole solution is filtered through a filter (Macherey-Nagel Filter MN 807¼). Ammonium and nitrate content is then analyzed in the filtrate in an autoanalyzer at 550 nm (Merck, AA11).
The inhibition (NI @ a specified concentration) is calculated as follows: […]

[2] = volatility: weight loss from open vials in the hood; assay type: physicochemical; details: 251 mg in 10 ml vials open in the hood
Experimental: The compounds of the invention have been tested in terms of their volatility. 251 mg of the compounds were provided in 10 ml vials open in the hood and tested in comparison to 5-chloro-2-ethynyl pyridine (Ref.-1). The weight loss was determined after 1 week.

Compound | NI @ 0.3% [1] | NI @ 1% [1] | % weight loss after 1 week [2] | NI @ 0.1% [1] | NI @ 3% [1]
C[Si](C)(C#Cc1ccccn1)O[Si](C)(C)C#Cc1ccccn1 [No. 5] | 78 | 83 |  |  | 
C#Cc1ccc(Cl)cn1 [Ref.-1, 5-chloro-2-ethynyl pyridine, reference compound] |  |  | 53% |  | 
Cc1ccc(C#C[Si](C)(C)C)nc1 [No. 11] | 63 | 77 |  |  | 
C[Si](C)(C#Cc1ccccn1)c1ccccc1 [No. 9] | 83 | 80 |  |  | 
C[Si](C)(C#Cc1ccccn1)O[Si](C)(C)O[Si](C)(C)O[Si](C)(C)C#Cc1ccccn1 [No. 7] | 31 | 63 |  |  | 
C[Si](C)(C)C#Cc1cnccn1 [No. 12] | 98 |  | 24% | 71 | 
C[Si](C)(C#Cc1ccccn1)O[Si](C)(C)O[Si](C)(C)C#Cc1ccccn1 [No. 6] | 51 | 75 |  |  | 
CC(C)(C)[Si](C)(C)C#Cc1ccccn1 [No. 4] | 11 | 28 |  |  | 
C[Si](C)(C)C#Cc1ccccn1 [No. 1] | 77 |  |  | 54 | 86
C[Si](C)(C#Cc1ccccn1)C[Si](C)(C)C#Cc1ccccn1 [No. 8] | 16 | 43 |  |  | 
C[Si](C)(C)C#Cc1ccc(Cl)cn1 [No. 10] | 75 |  | 8% | 61 | 85
C[Si](C)(C#Cc1ccccn1)CCl.Cl [No. 3] | 80 | 91 |  |  | 
C[SiH](C)C#Cc1ccccn1 [No. 2] | 82 | 94 |  |  | 

— patent publication US11414438B2, “Silylethynyl hetaryl compounds as nitrification inhibitors” (BASF SE, priority 2018, dated 2022)
